# Test results published in patent publication US20240398737A1, “FUNCTIONALIZED LONG-CHAIN HYDROCARBON MONO- AND DI-CARBOXYLIC ACIDS AND DERIVATIVES THEREOF, AND THEIR USE FOR THE PREVENTION OR TREATMENT OF DISEASE” (Espervita Therapeutics, Inc., priority 2021, published 2024).
# Tests used:
# PIM3 = PIM3 (Homo sapiens (Human), UniProt Q86V86); experiment: Wild type kinase screen: PIM3; format: biochemical; settings: compound at 10 μM, 10 μM ATP, Data 1 and Data 2 duplicates
# Human ACC2 = Human ACC2 (Homo sapiens (Human), UniProt O00763); experiment: ACC2 enzymatic assay (ADP-Glo); format: biochemical; design: key to Compound IC50 (M) ACC2: *: No detectable inhibition or compound activity; settings: recombinant human ACC2 1 nM; 10 concentrations from 300 μM; Runs 1-3
# Protocol: Human ACC1 (Cat #50202 Lot #120830) and ACC2 (Cat #50201 Lot #160217) were obtained from BPS Biosciences, San Diego, CA 92121. Human ACC1 had C-terminal flag and His-tags with a MW of 270 KDa after purification from Baculovirus infected Sf9 cell expression system and came as a solution in 50 mM Tris-HCl, pH 8.0, 500 mM NaCl, 10% glycerol, 1 mM DTT, 100 μg/ml FLAG peptide with 70% purity. The stock concentration was 0.25 mg/ml corresponding to 0.926 μM. Human ACC2 was also purified from Baculovirus infected Sf9 expression system. […] The stock concentration was 0.1 mg/ml corresponding to 0.36 μM. The assay buffer for measuring the activity of ACC contained: 30 mM HEPES (pH 7.4), 2 mM MgCl2, 0.01% Brij35, 2 mM DTT, 1% DMSO (solvent for compound). For ACC1 and ACC2 assays, the following concentrations of substrate and cofactors were used: 12 mM NaHCO3, 10 μM acetyl CoA, 10 μM ATP, and 2 mM K-citrate. The recombinant human enzyme was used at 5 nM for ACC1 and 1 nM for ACC2. In brief, enzyme alone in the above buffer without substrate was used for background. All test materials were dissolved in 100% DMSO using acoustic technology (Echo550). The prepared solution was preincubated for 15 min followed by the addition of 5 μL/well of ADP standard. ATP was then added to start the reaction. The assay contents were spun and briefly shaken followed by incubation at room temperature for 1 h. At the end of completion of assay, 5 μL of ADP-Glo was added to each well to stop the reaction. The contents were mixed, spun and incubated at room temperature for 40 min followed by the addition of 10 μL/well of ADP detection reagent. The contents were spun, mixed and covered with plastic to measure luminescence. […] The light generated, measured in a luminometer, correlates to the amount of ADP generated in the ACC assay, which is indicative of ACC activity.
# The enzyme concentrations for ACC1 and ACC2 were 5 nM and 1 nM, respectively.
# Data represent nM or μM ADP produced, % Activity (relative to no inhibitor controls), and curve fits were performed by GraphPad Prism software. The IC50 concentration-response curves were generated for both the ACC1 and ACC2 assays using recombinant human ACC.
# human ACLY = human ACLY (Homo sapiens (Human), UniProt P53396); experiment: ATP-citrate lyase (ACLY) enzymatic assay (ADP-Glo); format: biochemical; design: key to Compound IC50 (M) ACLY: *: No detectable inhibition or compound activity; settings: recombinant human ACLY; 10 concentrations from 300 μM; Runs 1-3
# Protocol: ATP citrate lyase was obtained from Sino Biological Inc. Cat #11769-H07B, Lot #LC08DE1701. It was prepared from a DNA sequence encoding the human ACLY (P53396) (Met 1-Met 1101) expressed in Baculovirus-Insect Cells, with a polyhistidine tag at the N-terminus. The recombinant human ACLY consists of 1120 amino acids and has a calculated molecular mass of 123 kDa. It migrates as an approximately 110 kDa band in SDS-PAGE under reducing conditions. The enzyme came as a lyophilized powder in sterile 20 mM Tris, 500 mM NaCl, pH 8.0, 10% glycine. Normally 5%-8% trehalose and mannitol are added as protectants before lyophilization. The recombinant human ACLY from Sino Biological was formulated in 45 mM Tris-HCl, pH 8.0, 124 mM NaCl, 2.4 mM KCl, 18 mM glutathione, 10% glycerol, and 3 mM DTT.
# To detect ADP produced from ACL assay, the ADP-Glo™ assay format from Promega, Madison, WI, was used, to detect the conversion of ATP to ADP. […] This assay is performed in two steps: i) after the ACL-mediated enzymatic reaction that utilizes ATP and produces ADP, ADP-Glo™ Reagent is added to terminate the kinase reaction and deplete the remaining ATP, and ii) the Kinase Detection Reagent is added to convert ADP to ATP and allow the newly synthesized ATP to be measured using a luciferase/luciferin reaction. The light generated, measured in a luminometer, correlates to the amount of ADP generated in the ACL assay, which is indicative of ACL activity.
# Data represent nM or μM ADP produced, % Activity (relative to no inhibitor controls), and curve fits were performed by GraphPad Prism software. The IC50 concentration-response curves were generated for ADPGlo™ using recombinant human ACL from Sino Biologicals Inc.
# [1] = test system: hepatic de novo lipogenesis; experiment: Hepatic de novo lipogenesis (14C-glucose) in a murine model of NASH; format: in vivo, mouse; settings: 100 mg/kg as printed in the text (Table 6 prints 60 mg/kg)
# Human ACC2, sequence (O00763 whole entry): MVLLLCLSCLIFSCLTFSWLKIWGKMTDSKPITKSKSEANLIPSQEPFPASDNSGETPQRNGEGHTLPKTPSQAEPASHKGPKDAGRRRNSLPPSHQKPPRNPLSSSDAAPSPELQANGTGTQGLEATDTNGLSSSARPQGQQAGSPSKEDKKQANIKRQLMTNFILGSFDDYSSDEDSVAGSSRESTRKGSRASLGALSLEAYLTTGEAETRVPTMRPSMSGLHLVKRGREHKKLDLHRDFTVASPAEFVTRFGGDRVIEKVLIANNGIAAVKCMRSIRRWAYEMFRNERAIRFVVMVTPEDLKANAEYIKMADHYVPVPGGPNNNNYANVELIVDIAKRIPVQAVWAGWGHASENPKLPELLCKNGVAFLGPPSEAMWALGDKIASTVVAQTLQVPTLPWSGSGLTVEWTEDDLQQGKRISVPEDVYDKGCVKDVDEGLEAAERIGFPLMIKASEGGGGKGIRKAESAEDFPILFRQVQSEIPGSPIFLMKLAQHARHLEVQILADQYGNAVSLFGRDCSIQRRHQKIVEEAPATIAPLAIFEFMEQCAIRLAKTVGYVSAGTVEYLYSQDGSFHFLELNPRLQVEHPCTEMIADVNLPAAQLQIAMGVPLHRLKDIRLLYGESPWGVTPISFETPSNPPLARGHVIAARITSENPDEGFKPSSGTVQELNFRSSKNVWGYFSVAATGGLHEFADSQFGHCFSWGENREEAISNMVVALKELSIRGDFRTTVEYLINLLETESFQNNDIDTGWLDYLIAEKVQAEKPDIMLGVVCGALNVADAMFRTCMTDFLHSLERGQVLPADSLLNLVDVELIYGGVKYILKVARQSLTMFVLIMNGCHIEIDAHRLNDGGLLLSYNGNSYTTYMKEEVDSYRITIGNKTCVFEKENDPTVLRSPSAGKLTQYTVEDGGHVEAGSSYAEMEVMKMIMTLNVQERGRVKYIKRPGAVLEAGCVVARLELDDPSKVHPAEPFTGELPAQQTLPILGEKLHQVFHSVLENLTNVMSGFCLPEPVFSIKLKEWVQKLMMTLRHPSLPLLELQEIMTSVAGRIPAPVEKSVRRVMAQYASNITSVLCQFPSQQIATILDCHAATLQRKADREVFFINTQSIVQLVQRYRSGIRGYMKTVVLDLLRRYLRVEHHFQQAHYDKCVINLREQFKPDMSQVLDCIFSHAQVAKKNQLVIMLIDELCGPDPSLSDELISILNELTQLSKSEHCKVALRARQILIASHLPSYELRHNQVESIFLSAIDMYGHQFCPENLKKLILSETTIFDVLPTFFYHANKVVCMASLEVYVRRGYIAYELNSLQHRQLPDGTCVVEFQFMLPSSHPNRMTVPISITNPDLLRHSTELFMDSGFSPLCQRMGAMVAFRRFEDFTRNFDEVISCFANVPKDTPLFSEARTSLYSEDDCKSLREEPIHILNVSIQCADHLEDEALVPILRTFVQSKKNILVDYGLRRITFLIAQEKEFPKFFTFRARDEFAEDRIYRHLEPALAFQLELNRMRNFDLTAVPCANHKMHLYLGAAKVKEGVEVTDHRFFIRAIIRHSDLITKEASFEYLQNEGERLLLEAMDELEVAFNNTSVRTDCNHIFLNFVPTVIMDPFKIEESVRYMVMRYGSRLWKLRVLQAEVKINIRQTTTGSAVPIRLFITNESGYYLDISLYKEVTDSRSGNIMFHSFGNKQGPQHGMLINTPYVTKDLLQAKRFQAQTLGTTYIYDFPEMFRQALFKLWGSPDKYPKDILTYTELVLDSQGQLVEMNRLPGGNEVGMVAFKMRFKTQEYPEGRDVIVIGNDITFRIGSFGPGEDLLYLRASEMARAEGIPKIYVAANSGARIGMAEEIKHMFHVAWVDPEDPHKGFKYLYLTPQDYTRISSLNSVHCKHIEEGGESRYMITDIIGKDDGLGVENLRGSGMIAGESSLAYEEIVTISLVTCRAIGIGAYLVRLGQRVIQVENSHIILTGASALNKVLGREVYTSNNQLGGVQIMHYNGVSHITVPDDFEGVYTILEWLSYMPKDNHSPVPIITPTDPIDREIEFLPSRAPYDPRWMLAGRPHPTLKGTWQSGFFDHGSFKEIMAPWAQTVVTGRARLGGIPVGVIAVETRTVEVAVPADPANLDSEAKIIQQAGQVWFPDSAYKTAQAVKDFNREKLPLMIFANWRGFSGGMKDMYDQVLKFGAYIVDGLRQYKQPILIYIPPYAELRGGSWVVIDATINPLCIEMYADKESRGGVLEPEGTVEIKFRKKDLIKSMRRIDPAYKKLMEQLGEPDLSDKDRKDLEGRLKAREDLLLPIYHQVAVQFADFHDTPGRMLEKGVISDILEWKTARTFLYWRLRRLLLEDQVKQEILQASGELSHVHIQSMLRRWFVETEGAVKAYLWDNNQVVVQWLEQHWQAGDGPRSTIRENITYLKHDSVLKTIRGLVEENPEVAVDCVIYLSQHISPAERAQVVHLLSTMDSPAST
# human ACLY, sequence (P53396 whole entry): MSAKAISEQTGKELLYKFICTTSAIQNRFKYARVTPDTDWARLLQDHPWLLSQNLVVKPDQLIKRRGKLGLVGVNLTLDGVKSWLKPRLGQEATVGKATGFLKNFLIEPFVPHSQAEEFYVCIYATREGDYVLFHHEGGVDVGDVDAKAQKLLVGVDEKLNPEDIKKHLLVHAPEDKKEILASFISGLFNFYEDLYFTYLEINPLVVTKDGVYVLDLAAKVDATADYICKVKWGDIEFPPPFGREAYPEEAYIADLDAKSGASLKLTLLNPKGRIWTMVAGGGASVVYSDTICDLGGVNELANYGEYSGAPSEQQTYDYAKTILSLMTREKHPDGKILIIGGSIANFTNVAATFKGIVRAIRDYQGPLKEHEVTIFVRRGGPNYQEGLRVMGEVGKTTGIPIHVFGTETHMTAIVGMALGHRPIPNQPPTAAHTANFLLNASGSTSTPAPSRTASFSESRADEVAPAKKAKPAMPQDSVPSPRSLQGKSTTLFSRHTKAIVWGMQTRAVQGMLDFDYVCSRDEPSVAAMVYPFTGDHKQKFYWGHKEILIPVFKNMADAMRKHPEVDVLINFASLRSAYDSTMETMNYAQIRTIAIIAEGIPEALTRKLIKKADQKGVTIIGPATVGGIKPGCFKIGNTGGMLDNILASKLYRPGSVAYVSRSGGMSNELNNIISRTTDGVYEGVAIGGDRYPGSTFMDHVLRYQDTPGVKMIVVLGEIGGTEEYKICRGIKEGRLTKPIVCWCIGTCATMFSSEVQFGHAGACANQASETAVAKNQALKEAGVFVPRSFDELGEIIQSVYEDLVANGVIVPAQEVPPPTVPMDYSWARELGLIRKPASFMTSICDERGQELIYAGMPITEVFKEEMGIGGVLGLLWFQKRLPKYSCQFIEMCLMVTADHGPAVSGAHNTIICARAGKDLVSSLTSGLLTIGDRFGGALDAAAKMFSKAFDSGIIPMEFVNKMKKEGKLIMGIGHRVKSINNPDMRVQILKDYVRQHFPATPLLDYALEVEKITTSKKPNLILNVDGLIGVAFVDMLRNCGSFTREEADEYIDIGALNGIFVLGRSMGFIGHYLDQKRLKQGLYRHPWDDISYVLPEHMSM
Structure (SMILES),% Enzyme Activity (relative to DMSO controls) (PIM3),Compound IC50 (M) ACC2 (Human ACC2),Compound IC50 (M) ACLY (human ACLY),Inhibition of liver lipogenesis [1]
"CC(C)(CCCCc1cccc(CCCCC(C)(C)C(=O)O)c1)C(=O)O [Compound I-32, 6-[3-(5-carboxy-5-methylhexyl)-phenyl]-2,2-dimethylhexanoic acid]",86.73%,*,*,~50%
"CC(C)(CCCCc1ccc(CCCCC(C)(C)C(=O)O)cc1)C(=O)O [Compound I-1, 6-[4-(5-carboxy-5-methylhexyl)-phenyl]-2,2-dimethylhexanoic acid]",83%,*,*,69%
